Earlier results in patent publication US20080019975A1, “Novel Regimens for Treating Diseases and Disorders” (BioAssets Development Corporation, priority 2006, published 2008).

Tested on: sciatica patients
Settings: IV administration, blinded trial versus placebo saline infusion

infliximab
difference between patients treated with the drug versus placebo saline infusion: failed to show a difference
